Test results from PubChem BioAssay (NCI).
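Where inhibition never reached the appropriate level, the endpoint shown equals the highest concentration tested. Otherwise, values were interpolated linearly from a five-concentration, 48-hour dose response in 96-well plates. Abbreviation: GI50, concentration required for 50% inhibition of growth. TGI marks complete inhibition of growth.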

Experiments:
Experiment in all cases: NCI tumour cell line growth inhibition, 48 h
A498 renal = system: A498 renal
ACHN renal = system: ACHN renal
LOX IMVI melanoma = system: LOX IMVI melanoma
M14 melanoma = system: M14 melanoma
OVCAR-4 ovarian = system: OVCAR-4 ovarian
PC-3 prostate = system: PC-3 prostate
SK-MEL-28 melanoma = system: SK-MEL-28 melanoma
SK-MEL-5 melanoma = system: SK-MEL-5 melanoma
SR leukemia = system: SR leukemia
UACC-62 melanoma = system: UACC-62 melanoma

Compound | GI50 (A498 renal) [µM] | TGI (A498 renal) [µM] | GI50 (ACHN renal) [µM] | TGI (ACHN renal) [µM] | GI50 (LOX IMVI melanoma) [µM] | TGI (LOX IMVI melanoma) [µM] | GI50 (M14 melanoma) [µM] | TGI (M14 melanoma) [µM] | GI50 (OVCAR-4 ovarian) [µM] | TGI (OVCAR-4 ovarian) [µM] | GI50 (PC-3 prostate) [µM] | TGI (PC-3 prostate) [µM] | GI50 (SK-MEL-28 melanoma) [µM] | TGI (SK-MEL-28 melanoma) [µM] | GI50 (SK-MEL-5 melanoma) [µM] | TGI (SK-MEL-5 melanoma) [µM] | GI50 (SR leukemia) [µM] | TGI (SR leukemia) [µM] | GI50 (UACC-62 melanoma) [µM] | TGI (UACC-62 melanoma) [µM]
COc1cc(-c2cn(-c3ccc(Cl)c(Cl)c3)c(=O)n2C(C)=O)cc(OC)c1OC | 16.6 | 32.1 | 10.4 | 30.5 | 13.7 | 28 | 16.7 | 45.7 | 5.21 | > 100 | 4.3 | 17.8 | 11.6 | 29.6 | 12.7 | 25.3 | 14.8 | 34.5 | 13.3 | 26
Cc1cc2c(cc1C)N(C(=O)CCl)CCN2C(=O)CCl | 1.79 | 3.29 | 0.638 | 2.08 | 0.173 | 0.365 | 1.08 | 2.52 | 1.44 | 3.37 | 1.43 | 2.89 | 1.56 | 2.96 | 0.64 | 1.93 | 0.421 | 2.65 | 0.657 | 2.29
Nc1ccccc1C#C/C=C\C#Cc1ccccc1[N+](=O)[O-] | 25.4 | 69.7 | 5.3 | 19 | 2.28 | 15.7 | 8.08 | 26.9 |  |  | 6.82 | > 100 | 15.4 | 34.8 | 3.08 | 18.6 | 0.289 | 5.54 | 2.02 | 10.6
O=C1NC(=S)S/C1=C(/C=C(\CC(=O)c1ccccc1)c1ccc(Cl)cc1)c1ccccc1 | 38 | 76 | 25.5 | 61.3 | 37.6 | > 100 | 24.7 | 63.4 | 44.9 | > 100 | 25.8 | 83.3 | 61.9 | > 100 | 19.1 | 34.3 | 27 | 63.3 | 21.6 | 43.7
Cc1sc2nc3c4ccccc4c(NCCCN(C)C)nn3c(=O)c2c1C | 4.49 | 20.2 | 6.95 | 20.4 | 2 | 6.85 | 1.77 | 3.22 | 12.1 | 24.9 | 11.5 | 24.2 | 1.73 | 3.21 | 3.01 | 9.8 | 1.33 | 3.52 |  | 
CC(CCC(=O)O)C(=O)O (stereo not given) |  | > 100 |  | > 100 |  | > 100 |  | > 100 |  | > 100 |  | > 100 |  | > 100 |  | > 100 |  | > 100 |  | > 100
Cc1ccc2nc(-c3ccc(N(C)C)c(Br)c3)cn2c1 | > 100 | > 100 | > 100 | > 100 | 35.2 | > 100 | > 100 | > 100 | > 100 | > 100 | 5.69 | > 100 | 10.5 | > 100 | 5.78 | > 100 | 1.46 | > 100 | > 100 | > 100
COc1ccc(C2=NN(C=O)C(c3cccc(Nc4ccnc5cc(Cl)ccc45)c3)C2)cc1 (stereo not given) | 1.35 | 9.26 | 4.59 | 62.7 | 2.52 | 12.5 | 2.34 | 15.9 | 1.54 | 31.8 | 2.87 | > 100 | 8.12 | 25.3 | 0.922 | 3.71 | 0.583 | 5.23 | 2.41 | 20.6
CCOc1cc(/C=N\Nc2nnc(C)n2N)c(C)cc1N(CCCl)CCCl | 0.212 | 2.41 | 0.805 | > 100 | 0.349 | 11.2 | 0.776 | > 49.8 | 0.338 | > 68.2 | 0.927 | 7.41 | 1.97 | 53.8 | 0.259 | 1.05 | 0.558 | 23.5 | 0.525 | 15.3
O=C(O)c1ccc2c(c1)CCCC(c1ccc(Cl)cc1Cl)=C2c1ccc(O[C@H]2CCN(CCCF)C2)cc1 | 11.5 | 24.6 | 11.7 | 24.3 | 11 | 26.1 | 13.2 | 28.7 | 12 | 30 | 10.4 | 24.2 | 11.5 | 25.1 | 10.8 | 23.2 | 4.87 | 20.7 | 12.7 | 26.3
Cc1c(C(=O)NCCN2CCOCC2)cn2ncnc(Oc3ccc(NC(=O)Nc4ccc(Cl)c(C(F)(F)F)c4)cc3)c12 | 1.6 | 3.08 |  |  | 0.601 | 1.94 | 1.08 | 2.55 | 2.37 | 5.61 | 0.842 | 2.33 | 1.06 | 2.39 | 1.65 | 3.01 | 0.339 | 2.26 | 1.34 | 2.84
C=C1C(=O)O[C@H]2[C@H]1CC/C(COC(=O)c1cc3cc(Cl)ccc3[nH]1)=C\CC[C@@]1(C)O[C@@H]21 | 2.65 | 9.17 | 1.35 | 2.75 | 0.813 | 2.08 | 1.47 | 3.4 | 1.33 | 2.72 | 2.42 | 6.58 | 1.58 | 3.1 | 1.91 | 3.54 | 0.776 | 3.61 | 1.67 | 3.27
CCn1c(-c2nonc2N)nc2c(C#CC(C)(C)O)nc(OCCNC)cc21 | 1.35 | 9.43 | 8.29 | > 25 | 6.88 | > 25 | 8.15 | 22.6 | 9.89 | > 25 | 6.88 | > 25 | 8.49 | > 25 | 5.19 | 12 | 9.56 | > 21.8 | 6.08 | 16.9
CCOc1cccc(/C=N/NC(=O)C(=O)Nc2cccc(C(F)(F)F)c2)c1O | 8.85 | 76.2 | 1.03 | 25.3 | 1.44 | 22.2 | 1.52 | 12.6 | 0.398 | > 100 | 1.95 | > 100 | 5.51 | > 100 | 1.87 | 19 | 0.705 | 15.4 | 1.06 | 4.51
COc1ccc2cc(-c3c(-c4ccncc4)nc(-c4ccc(S(C)(=O)=O)cc4C)n3C)ccc2c1 | 6.31 | > 25 | 8.36 | > 25 | 9.01 | > 25 | 10.1 | > 25 | 5.3 | 22 | 8.35 | > 25 | 9.28 | 24.9 | 4.54 | > 15.4 | 13 | > 25 | 7.95 | > 25
CNCCn1c(=O)c2cc(OC)c(OC)cc2c2ccc3cc4c(cc3c21)OCO4 | 0.126 | 0.609 | 0.0822 | 0.368 | 0.0577 | 0.173 | 0.0786 | 0.399 | 0.175 | 4.26 | 0.109 | 6.23 | 0.555 | 2.69 | 0.0862 | 0.199 | 0.0173 | 0.972 | 0.0465 | 0.145
Cc1ccc(-c2csc(NC(=O)CN3CCN(c4cc5c(cc4F)c(=O)c(C(=O)O)cn5C4CC4)CC3)n2)cc1 | 1.02 | 10.3 | 2.58 | 14.3 | 0.482 | 29.2 | 1.63 | 32.9 | 2.38 | > 100 | 0.504 | > 100 | 1.94 | > 100 | 1.02 | 2.89 | 0.645 | 6.87 | 1.26 | 13.1
CCN(CC)C(=S)Oc1cc2oc(=O)cc(C)c2cc1Cl |  | > 100 |  | > 100 |  | > 100 |  | > 100 |  | > 100 |  | > 100 |  | > 100 |  | > 100 |  | > 100 |  | 73.7
CN(C)CCCNC(=O)c1ccc2c(c1)oc1cc3ccccc3c(=O)n12 |  |  | 8.33 | 16.1 | 9.4 | 17.9 | 14.3 | 35.5 | 40.9 | > 50 | 31.7 | > 50 | 14.5 | 29.3 | 6.1 | 13 | 10 | 46.6 | > 50 | > 50
NC(=O)c1cc2c3ccccc3ccn2c1-c1ccccc1 | 0.0468 | 7.42 | 3.17 | 30.5 | 0.0912 | 16.2 | 0.0706 | 17.7 | 0.155 | > 54.5 | 0.0371 | 12.6 | 14.7 | 34.5 | 0.0392 | 3.14 | 0.0933 | 3.75 | 0.0385 | > 41.7
COc1ccc(Cn2cc3c(c2)-c2oncc2CC3)cc1 | 1.74 | 9.74 | 11.6 | > 100 | 6.99 | > 100 | 3.12 | 61.7 | 6.53 | > 29.8 | 5.26 | 61.1 | 4.08 | > 52.8 | 3.21 | 12.6 | 1.41 | 5.38 | 3.75 | > 100
COc1ccc(N2C(=O)[C@H]3CC(C)c4c([nH]c5ccccc45)[C@H]3C2=O)cc1 (stereo not given in full) |  | 77.7 |  | > 76.8 |  | 63.8 |  | 39.9 |  | 30.6 |  | 23.6 |  | 57.8 |  | 36.6 |  | > 100 |  | 22.7
Cc1cc2c(cc1Cl)SC1=NN(C)C(N(C)C)N1S2(=O)=O (stereo not given) | 63.4 | > 100 | > 100 | > 100 | > 100 | > 100 | > 100 | > 100 | > 100 | > 100 | > 100 | > 100 | > 100 | > 100 | > 100 | > 100 | > 100 | > 100 | > 100 | > 100
O=C(O)C1CCCCC1C(=O)O.[NH-]C1CCC1.[NH2-].[Pt+2] (stereo not given) |  |  | 16.4 | 31.3 | 6.35 | 23.3 | 12.6 | 27.3 | 15.2 | 29.7 | > 100 | > 100 | 15.9 | 31.4 | 3.36 | 12.5 | 3.72 | > 100 | 11.4 | 23.6
Nc1ccccc1C#C/C=C\C#Cc1ccccc1 | 15.3 | 31.1 | 23.9 | 75 | 10.3 | 24.1 | 15.8 | 32.4 | 12.1 | 32.4 | 12.3 | 54.1 | 11.7 | 27.1 | 5 | 18.5 |  |  | 13 | 27.7
O=c1cccc(C2CC(CO)C3CCCCN3C2)[nH]1 (stereo not given) |  | > 100 |  | > 100 |  | > 100 |  | > 100 |  | > 100 |  | > 100 |  | > 100 |  | > 100 |  |  |  | > 100
Cn1c2c(c3ccc(Cl)c(Cl)c31)C(C#N)C1(CCNCC1)NC2=O (stereo not given) | 1.24 | 2.95 | 1.82 | 5.79 | 1.54 | 3.39 | 1.54 | 3.3 | 2.82 | 8.8 | 1.55 | 4.99 | 0.841 | 2.37 | 1.5 | 2.91 |  |  | 1.63 | 3.31
